Measurements as given in PubChem BioAssay AID228 (DTP/NCI, 2004).
Values joined by “and” are separate entries in the source; they are usually repeats but may differ in a detail not shown here. Equal values may be shown once. Results filed as inconclusive are left out.

Tested on: BDF1 mice, Friend leukemia sc, tumor weight T/C
Experiment: NCI In Vivo Anticancer Drug Screen. Data for tumor model Friend Virus Leukemia (Solid) (subcutaneous) in B6D2F1 (BDF1) mice
Conditions: endpoint: mean tumor weight, higher = larger tumour
Experimental: The antitumor activity of compounds was measured in mice bearing transplantable tumors. Survival or tumor size were measured and the results are expressed as the measurement made in the treated group (T) divided by the measurement made in the vehicle treated control group (C). The tumor model used in this assay is Friend Virus Leukemia (Solid) (subcutaneous) in B6D2F1 (BDF1) mice

[1] = dose: 125.0 mg/kg/injection, schedule: Q01DX011 (ip), vehicle: carboxymethylcellulose (CMC)
[2] = dose: 250.0 mg/kg/injection, schedule: Q01DX011 (ip), vehicle: carboxymethylcellulose (CMC)
[3] = dose: 500.0 mg/kg/injection, schedule: Q01DX011 (ip), vehicle: carboxymethylcellulose (CMC)
[4] = dose: 62.5 mg/kg/injection, schedule: Q01DX011 (ip), vehicle: carboxymethylcellulose (CMC)
[5] = dose: 25.0 mg/kg/injection, schedule: Q01DX011 (ip), vehicle: saline
[6] = dose: 12.0 mg/kg/injection, schedule: Q01DX011 (ip), vehicle: carboxymethylcellulose (CMC)
[7] = dose: 25.0 mg/kg/injection, schedule: Q01DX011 (ip), vehicle: carboxymethylcellulose (CMC)
[8] = dose: 100.0 mg/kg/injection, schedule: Q01DX011 (ip), vehicle: carboxymethylcellulose (CMC)
[9] = dose: 1.5 mg/kg/injection, schedule: Q01DX011 (ip), vehicle: carboxymethylcellulose (CMC)
[10] = dose: 3.0 mg/kg/injection, schedule: Q01DX011 (ip), vehicle: carboxymethylcellulose (CMC)
[11] = dose: 6.0 mg/kg/injection, schedule: Q01DX011 (ip), vehicle: carboxymethylcellulose (CMC)
[12] = dose: 50.0 mg/kg/injection, schedule: Q01DX011 (ip), vehicle: carboxymethylcellulose (CMC)
[13] = dose: 6.25 mg/kg/injection, schedule: Q01DX011 (ip), vehicle: carboxymethylcellulose (CMC)
[14] = dose: 12.5 mg/kg/injection, schedule: Q01DX011 (ip), vehicle: carboxymethylcellulose (CMC)

CCCCSc1nc(N)nc2c1ncn2CC(C)CC (stereo unspecified)
T/C [1]: 68 % of control | T/C [2]: 75 % of control | T/C [3]: 23 % of control

CC(C)CCS(=O)(=O)OCCCCOS(=O)(=O)CCC(C)C
T/C [4]: 98 % of control | T/C [1]: 97 % of control | T/C [2]: 73 % of control | T/C [3]: 39 % of control

NNc1ncnc2nc[nH]c12
T/C [5]: 118 % of control | T/C (dose: 50.0 mg/kg/injection, schedule: Q01DX011 (ip), vehicle: saline): 61 % of control

NC(CO)C(=O)O (stereo unspecified)
T/C [2]: 108 % of control | T/C [3]: 112 % of control

N#[N+]c1cnc([O-])[nH]c1=O
T/C (dose: 1.3 mg/kg/injection, schedule: Q01DX011 (ip), vehicle: carboxymethylcellulose (CMC)): 113 % of control | T/C (dose: 11.5 mg/kg/injection, schedule: Q01DX011 (ip), vehicle: carboxymethylcellulose (CMC)): 49 % of control

O=c1[nH]cnc2n[nH]nc12
T/C [4]: 71 % of control | T/C [1]: 55 % of control | T/C [2]: 31 % of control and 36 % of control | T/C [3]: 11 % of control and 17 % of control

CSc1ncnc2c1ncn2C1CCCO1 (stereo unspecified)
T/C [6]: 96 % of control | T/C [7]: 45 % of control | T/C [8]: 3 % of control and 9 % of control

c1ccc(CNc2ncnc3[nH]ncc23)cc1
T/C (dose: 1.12 mg/kg/injection, schedule: Q01DX011 (ip), vehicle: carboxymethylcellulose (CMC)): 109 % of control | T/C (dose: 2.25 mg/kg/injection, schedule: Q01DX011 (ip), vehicle: carboxymethylcellulose (CMC)): 77 % of control | T/C (dose: 4.5 mg/kg/injection, schedule: Q01DX011 (ip), vehicle: carboxymethylcellulose (CMC)): 78 % of control | T/C (dose: 9.0 mg/kg/injection, schedule: Q01DX011 (ip), vehicle: carboxymethylcellulose (CMC)): 117 % of control | T/C (dose: 18.5 mg/kg/injection, schedule: Q01DX011 (ip), vehicle: carboxymethylcellulose (CMC)): 15 % of control

O=CCC(O)C(O)C(O)CO (stereo unspecified)
T/C [1]: 89 % of control | T/C [2]: 83 % of control | T/C [3]: 48 % of control | T/C (dose: 1000.0 mg/kg/injection, schedule: Q01DX011 (ip), vehicle: carboxymethylcellulose (CMC)): 63 % of control

CCN(CC)c1ccc2cc3ccc(=[N+](CC)CC)cc-3oc2c1
T/C (dose: 5.0 mg/kg/injection, schedule: Q01DX011 (ip), vehicle: carboxymethylcellulose (CMC)): 102 % of control

CN(C)C1C(=O)C(C(N)=O)=C(O)C2(O)C(=O)C3=C(O)c4c(O)cccc4C(C)(O)C3C(O)C12 (stereo unspecified)
T/C (dose: 19.5 mg/kg/injection, schedule: Q01DX011 (ip), vehicle: carboxymethylcellulose (CMC)): 94 % of control | T/C (dose: 78.0 mg/kg/injection, schedule: Q01DX011 (ip), vehicle: carboxymethylcellulose (CMC)): 115 % of control | T/C (dose: 156.0 mg/kg/injection, schedule: Q01DX011 (ip), vehicle: carboxymethylcellulose (CMC)): 95 % of control

O=C1N(Cl)C(=O)C(c2ccc(Cl)cc2)(c2ccc(Cl)cc2)N1Cl
T/C (dose: 15.0 mg/kg/injection, schedule: Q01DX011 (ip), vehicle: carboxymethylcellulose (CMC)): 56 % of control | T/C (dose: 30.0 mg/kg/injection, schedule: Q01DX011 (ip), vehicle: carboxymethylcellulose (CMC)): 42 % of control | T/C (dose: 60.0 mg/kg/injection, schedule: Q01DX011 (ip), vehicle: carboxymethylcellulose (CMC)): 33 % of control | T/C (dose: 120.0 mg/kg/injection, schedule: Q01DX011 (ip), vehicle: carboxymethylcellulose (CMC)): 47 % of control

NC(=O)c1ccc(NC(=O)CCC(=O)Nc2ccc(C(N)=O)cn2)nc1
T/C (dose: 0.5 mg/kg/injection, schedule: Q01DX011 (ip), vehicle: saline): 106 % of control | T/C (dose: 1.0 mg/kg/injection, schedule: Q01DX011 (ip), vehicle: saline): 117 % of control | T/C (dose: 2.0 mg/kg/injection, schedule: Q01DX011 (ip), vehicle: saline): 106 % of control | T/C (dose: 4.0 mg/kg/injection, schedule: Q01DX011 (ip), vehicle: saline): 57 % of control

NCCCC(NC(=O)CCCCCCCCN=C(N)N)C(O)CCCCCCCCN=C(N)N (stereo unspecified)
T/C (dose: 0.38 mg/kg/injection, schedule: Q01DX011 (ip), vehicle: carboxymethylcellulose (CMC)): 102 % of control | T/C (dose: 0.75 mg/kg/injection, schedule: Q01DX011 (ip), vehicle: carboxymethylcellulose (CMC)): 82 % of control | T/C [9]: 92 % of control | T/C [10]: 96 % of control | T/C [11]: 79 % of control

ClCCn1cnc2c(SCc3ccccc3Cl)ncnc21
T/C [10]: 72 % of control | T/C [11]: 81 % of control | T/C [6]: 77 % of control | T/C [7]: 36 % of control | T/C [12]: 43 % of control | T/C [8]: 43 % of control | T/C (dose: 200.0 mg/kg/injection, schedule: Q01DX011 (ip), vehicle: carboxymethylcellulose (CMC)): 10 % of control and 25 % of control | T/C (dose: 400.0 mg/kg/injection, schedule: Q01DX011 (ip), vehicle: carboxymethylcellulose (CMC)): 16 % of control

CC1NC(=O)NC1CCCCCC(=O)O (stereo unspecified)
T/C (dose: 89.0 mg/kg/injection, schedule: Q01DX011 (ip), vehicle: carboxymethylcellulose (CMC)): 169 % of control | T/C (dose: 178.0 mg/kg/injection, schedule: Q01DX011 (ip), vehicle: carboxymethylcellulose (CMC)): 119 % of control

Clc1ccc2c(Cl)ncnc2c1
T/C (dose: 19.0 mg/kg/injection, schedule: Q01DX011 (ip), vehicle: carboxymethylcellulose (CMC)): 96 % of control | T/C (dose: 37.5 mg/kg/injection, schedule: Q01DX011 (ip), vehicle: carboxymethylcellulose (CMC)): 59 % of control | T/C (dose: 75.0 mg/kg/injection, schedule: Q01DX011 (ip), vehicle: carboxymethylcellulose (CMC)): 31 % of control

O=P1(N(CCCl)CCCl)NCCCO1 (stereo unspecified)
T/C (dose: 0.5 mg/kg/injection, schedule: Q01DX015 (ip), vehicle: saline): 183 % of control | T/C (dose: 1.0 mg/kg/injection, schedule: Q01DX015 (ip), vehicle: saline): 209 % of control | T/C [9]: 93 % of control | T/C (dose: 2.0 mg/kg/injection, schedule: Q01DX015 (ip), vehicle: saline): 224 % of control | T/C [10]: 81 % of control | T/C (dose: 3.0 mg/kg/injection, schedule: Q01DX015 (ip), vehicle: saline): 224 % of control | T/C (dose: 4.0 mg/kg/injection, schedule: Q01DX015 (ip), vehicle: saline): 225 % of control | T/C [11]: 89 % of control | T/C (dose: 6.2 mg/kg/injection, schedule: Q01DX011 (ip), vehicle: saline): 117 % of control | T/C [13]: 28 % of control | T/C (dose: 7.12 mg/kg/injection, schedule: Q01DX011 (ip), vehicle: saline): 105 % of control | T/C (dose: 8.0 mg/kg/injection, schedule: Q01DX011 (ip), vehicle: saline): 101 % of control | T/C (dose: 12.0 mg/kg/injection, schedule: Q01DX011 (ip), vehicle: saline): 58 % of control | T/C [14]: 37 % of control | T/C (dose: 12.5 mg/kg/injection, schedule: Q01DX011 (ip), vehicle: saline): 64 % of control | T/C (dose: 14.25 mg/kg/injection, schedule: Q01DX011 (ip), vehicle: saline): 52 % of control | T/C (dose: 23.0 mg/kg/injection, schedule: Q01DX011 (ip), vehicle: saline): 14 % of control | T/C [5]: 14 % of control | T/C (dose: 28.5 mg/kg/injection, schedule: Q01DX011 (ip), vehicle: saline): 32 % of control | T/C (dose: 29.0 mg/kg/injection, schedule: Q01DX011 (ip), vehicle: saline): 6 % of control | T/C [12]: 7 % of control and 10 % of control and 11 % of control

CCc1nc(N)nc(N)c1-c1ccc(Cl)cc1
T/C [13]: 124 % of control | T/C [14]: 85 % of control | T/C [7]: 113 % of control | T/C [12]: 95 % of control

c1ncc2[nH]cnc2n1
T/C (dose: 27.5 mg/kg/injection, schedule: Q01DX011 (ip), vehicle: carboxymethylcellulose (CMC)): 104 % of control | T/C (dose: 55.0 mg/kg/injection, schedule: Q01DX011 (ip), vehicle: carboxymethylcellulose (CMC)): 87 % of control | T/C (dose: 110.0 mg/kg/injection, schedule: Q01DX011 (ip), vehicle: carboxymethylcellulose (CMC)): 81 % of control | T/C (dose: 219.0 mg/kg/injection, schedule: Q01DX011 (ip), vehicle: carboxymethylcellulose (CMC)): 43 % of control

O=C1C=Cc2ccc(O)cc2C1=O
T/C (dose: 1.25 mg/kg/injection, schedule: Q01DX011 (ip), vehicle: carboxymethylcellulose (CMC)): 108 % of control | T/C (dose: 2.5 mg/kg/injection, schedule: Q01DX011 (ip), vehicle: carboxymethylcellulose (CMC)): 83 % of control | T/C (dose: 10.0 mg/kg/injection, schedule: Q01DX011 (ip), vehicle: carboxymethylcellulose (CMC)): 102 % of control
